According to ChEMBL document CHEMBL3797052 (Eur J Med Chem, 2016):

What was measured:
Format in all cases: functional
[1] = Cytotoxicity against human HCT116 cells assessed as growth inhibition at 100 uM after 2 days by MTT assay; settings: HCT-116, 48 h, read-out: GI
[2] = Cytotoxicity against human HCT116 cells assessed as growth inhibition at 10 uM after 2 days by MTT assay; settings: HCT-116, 48 h, read-out: GI
[3] = Cytotoxicity against human SKBR3 cells assessed as growth inhibition at 100 uM after 2 days by MTT assay; settings: SK-BR-3, 48 h, read-out: GI
[4] = Cytotoxicity against human SKBR3 cells assessed as growth inhibition at 10 uM after 2 days by MTT assay; settings: SK-BR-3, 48 h, read-out: GI

CNC(=O)c1cc(Oc2ccc3nc(NC(=O)c4cc(Cl)cc(Cl)c4)sc3c2)ccn1
inhibition of growth at 100 µM [1]: 15.8% | inhibition of growth at 10 µM [2]: 13.4% | inhibition of growth at 100 µM [3]: 84.2% | inhibition of growth at 10 µM [4]: 9.62%

CNC(=O)c1cc(Oc2ccc3nc(NC(=O)Nc4ccc(N5CCOCC5)cc4)sc3c2)ccn1
inhibition of growth at 100 µM [1]: 73.3% | inhibition of growth at 10 µM [2]: 1.58% | inhibition of growth at 100 µM [3]: 77.7% | inhibition of growth at 10 µM [4]: 14.1%

CNC(=O)c1cc(Oc2ccc3nc(NC(=O)c4ccc(Cl)cc4)sc3c2)ccn1
inhibition of growth at 100 µM [1]: 80.5% | inhibition of growth at 10 µM [2]: 27.5% | inhibition of growth at 100 µM [3]: 83% | inhibition of growth at 10 µM [4]: 18.9%

CNC(=O)c1cc(Oc2ccc3nc(NC(=O)Nc4ccc(N5CCN(C)CC5)cc4)sc3c2)ccn1
inhibition of growth at 100 µM [1]: 95% | inhibition of growth at 10 µM [2]: 24.6% | inhibition of growth at 100 µM [3]: 86.4% | inhibition of growth at 10 µM [4]: 30.5%

CNC(=O)c1cc(Oc2ccc3nc(NC(=O)c4ccc(Cl)cc4Cl)sc3c2)ccn1
inhibition of growth at 100 µM [1]: 64.4% | inhibition of growth at 10 µM [2]: 15.1% | inhibition of growth at 100 µM [3]: 81% | inhibition of growth at 10 µM [4]: 14%

CNC(=O)c1cc(Oc2ccc3nc(NC(=O)Nc4ccc(Br)cc4)sc3c2)ccn1
inhibition of growth at 100 µM [1]: 80% | inhibition of growth at 10 µM [2]: 12.1% | inhibition of growth at 100 µM [3]: 69.2% | inhibition of growth at 10 µM [4]: 26.7%

CNC(=O)c1cc(Oc2ccc3nc(NC(=O)Nc4ccc(F)cc4)sc3c2)ccn1
inhibition of growth at 100 µM [1]: 83.8% | inhibition of growth at 10 µM [2]: 12.2% | inhibition of growth at 100 µM [3]: 72.9% | inhibition of growth at 10 µM [4]: 14.2%

CNC(=O)c1cc(Oc2ccc3nc(NC(=O)Nc4ccc(Cl)cc4Cl)sc3c2)ccn1
inhibition of growth at 100 µM [1]: 93.6% | inhibition of growth at 10 µM [2]: 32.2% | inhibition of growth at 100 µM [3]: 91.7% | inhibition of growth at 10 µM [4]: 22.3%

CNC(=O)c1cc(Oc2ccc3nc(NC(=O)c4cc5ccccc5o4)sc3c2)ccn1
inhibition of growth at 100 µM [1]: 77.5% | inhibition of growth at 10 µM [2]: 9.15% | inhibition of growth at 100 µM [3]: 52.4% | inhibition of growth at 10 µM [4]: 54.4%

CNC(=O)c1cc(Oc2ccc3nc(NC(=O)Nc4cc(C(F)(F)F)ccc4Cl)sc3c2)ccn1
inhibition of growth at 100 µM [1]: 90% | inhibition of growth at 10 µM [2]: 16.3% | inhibition of growth at 100 µM [3]: 89.1% | inhibition of growth at 10 µM [4]: 28.3%
